Here are results for 23 molecules from patent publication US20230303570A1, “KINASE INHIBITORS AND USES THEREOF” (ABM Therapeutics Corporation, priority 2020, published 2023).

pIC50: −log10 of the molar value. A value given as a limit tells only on which side of the number the result lay.

As a reminder, the pIC50 is −log10 of the IC50, conventionally taken in molar units.

Sequence of HPK1 (MAP4K1) (Q92918 whole entry, species assumed): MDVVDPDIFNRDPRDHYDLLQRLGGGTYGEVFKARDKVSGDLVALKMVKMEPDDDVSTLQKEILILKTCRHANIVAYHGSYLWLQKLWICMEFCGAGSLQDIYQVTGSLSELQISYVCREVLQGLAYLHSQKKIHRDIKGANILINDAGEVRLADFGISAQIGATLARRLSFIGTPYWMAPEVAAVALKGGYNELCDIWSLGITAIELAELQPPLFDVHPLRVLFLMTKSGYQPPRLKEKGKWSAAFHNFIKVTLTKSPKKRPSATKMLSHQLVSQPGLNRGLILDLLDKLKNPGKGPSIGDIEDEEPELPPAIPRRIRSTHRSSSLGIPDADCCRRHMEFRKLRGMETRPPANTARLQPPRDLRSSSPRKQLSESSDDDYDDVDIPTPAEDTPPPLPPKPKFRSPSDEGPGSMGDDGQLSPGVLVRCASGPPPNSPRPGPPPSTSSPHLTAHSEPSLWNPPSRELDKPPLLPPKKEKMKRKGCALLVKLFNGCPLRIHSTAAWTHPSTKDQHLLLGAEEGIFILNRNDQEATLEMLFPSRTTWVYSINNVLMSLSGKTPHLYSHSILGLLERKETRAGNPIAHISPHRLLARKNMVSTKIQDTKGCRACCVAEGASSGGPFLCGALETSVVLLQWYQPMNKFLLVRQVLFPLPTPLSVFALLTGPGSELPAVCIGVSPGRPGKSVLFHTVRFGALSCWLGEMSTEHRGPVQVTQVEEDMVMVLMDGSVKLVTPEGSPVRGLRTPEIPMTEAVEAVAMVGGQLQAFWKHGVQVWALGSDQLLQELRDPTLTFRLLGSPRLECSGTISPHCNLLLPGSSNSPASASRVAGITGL
T1 sequence (P12931 whole entry): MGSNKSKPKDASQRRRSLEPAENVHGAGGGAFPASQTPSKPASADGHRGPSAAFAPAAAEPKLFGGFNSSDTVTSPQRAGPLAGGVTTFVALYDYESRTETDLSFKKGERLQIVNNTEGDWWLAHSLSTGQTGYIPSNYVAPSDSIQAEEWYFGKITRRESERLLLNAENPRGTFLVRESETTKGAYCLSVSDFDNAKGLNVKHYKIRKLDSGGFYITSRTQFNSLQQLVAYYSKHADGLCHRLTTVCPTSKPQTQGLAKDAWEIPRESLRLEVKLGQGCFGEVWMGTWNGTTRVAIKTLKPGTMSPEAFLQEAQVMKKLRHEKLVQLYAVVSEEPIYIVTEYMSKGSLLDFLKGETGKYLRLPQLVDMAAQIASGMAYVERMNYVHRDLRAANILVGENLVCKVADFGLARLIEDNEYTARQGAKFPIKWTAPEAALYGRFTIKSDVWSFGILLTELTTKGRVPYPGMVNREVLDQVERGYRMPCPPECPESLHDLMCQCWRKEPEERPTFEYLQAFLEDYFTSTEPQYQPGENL

The first assay has as its target T1, SRC (Homo sapiens, UniProt P12931).
T1 construct: purchased Carna Biosciences
Nature of the assay: In vitro kinase assay, SRC (Caliper EZ Reader conversion). Format: biochemical. As to conditions: read-out: SRC IC50. The procedure: The effect of the compounds on the activity of SRC and PAK1 kinase were assessed. SRC and PAK1 kinase enzymes were obtained from Carna Biosciences.
Test compounds were dissolved in 100% DMSO to prepare a 20 mM stock. Compounds were stored in −20° C. and protected from light. […] Saracatinib was used as a positive control for the SRC assay, and FRAX597 was used as a positive control for the PAK1 assay. For the positive controls, a 3-fold serial dilution was made to achieve a total of 10 concentrations. 10 μL 1× Kinase buffer was used as the negative control.
First, 250 nL of the compounds at each dilution were transferred into wells of a 384-well plate. […] Then, 10 μL of enzyme mix was added to the 384-well plate, and the enzymes and compounds were pre-incubated at room temperature for 10 minutes. […] Then, 15 μL of substrate mix was added to a 384-well plate and reacted at room temperature for 30 min and 60 min. The reaction was stopped by adding 30 μL of the stop buffer, and the conversion rate was read using a Caliper EZ Reader.
Percent inhibition is calculated according to the following equation: […]
wherein “Conversion %_sample” is the conversion percentage value of the sample; “Conversion %_min” is the average conversion percentage value of the negative control; and “Conversion %_max” is the average conversion percentage value of the positive control.
The dose-response curve was fitted using GraphPad Prism software (version 5, […]), and the IC50 values for each compounds were calculated by log(inhibitor) vs. response using a variable slope program with the following formula:
Y=Bottom+(Top-Bottom)/(1+10^((Log IC50−X)*HillSlope))
Regarding `CN1CCN(c2ccc(Nc3ncc4c(n3)N3CCN=C3C(c3ccc(Cl)cc3Cl)=C4)c(F)c2)CC1` [Compound 8, 6-(2,4-dichlorophenyl)-N-(2-fluoro-4-(4-methylpiperazin-1-yl)phenyl)-8,9-dihydroimidazo[1′,2′:1,6]pyrido[2,3-d]pyrimidin-2-amine], the pIC50 is above 7.00.

Another assay has as its target HPK1 (MAP4K1) (Homo sapiens, UniProt Q92918). Nature of the assay: HPK1 (MAP4K1) kinase Lantha screen assay. Format: biochemical.
Conditions: not given
An outline of the steps: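 Recombinant MAP4K1 preincubated 10 min with compound (6-point dilution, duplicates) in 50 mM HEPES pH 7.5, 10 mM MgCl2, then reacted with Fluorescein-PKC substrate and ATP for 90 min at room temperature. Antibody detection solution stopped reaction; after 60 min, TR-FRET read at ex 340 nm, em 520/495 nm.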
The molecule `Cc1ccc(NC(=O)c2cc(C(F)(F)F)ccn2)cc1C1=Cc2cnc(Nc3ncccc3F)nc2N2CCN=C12` [Compound 220, N-(3-(2-((3-fluoropyridin-2-yl)amino)-8,9-dihydroimidazo[1′,2′:1,6]pyrido[2,3-d]pyrimidin-6-yl)-4-methylphenyl)-4-(trifluoromethyl)picolinamide] gave a pIC50 of 5.00 to 7.00. The molecule `COc1ccc(Nc2ncc3c(n2)N2CCN=C2C(c2cc(NC(=O)c4cc(C(F)(F)F)ccn4)ccc2C)=C3)cn1` [Compound 221, N-(3-(2-((6-methoxypyridin-3-yl)amino)-8,9-dihydroimidazo[1′,2′:1,6]pyrido[2,3-d]pyrimidin-6-yl)-4-methylphenyl)-4-(trifluoromethyl)picolinamide] showed a pIC50 above 7.00. For `COc1ncccc1Nc1ncc2c(n1)N1CCN=C1C(c1cc(NC(=O)c3cc(C(F)(F)F)ccn3)ccc1C)=C2` [Compound 222, N-(3-(2-((2-methoxypyridin-3-yl)amino)-8,9-dihydroimidazo[1′,2′:1,6]pyrido[2,3-d]pyrimidin-6-yl)-4-methylphenyl)-4-(trifluoromethyl)picolinamide], the pIC50 is above 7.00. Molecule `COc1ccncc1Nc1ncc2c(n1)N1CCN=C1C(c1cc(NC(=O)c3cc(C(F)(F)F)ccn3)ccc1C)=C2` [Compound 223, N-(3-(2-((4-methoxypyridin-3-yl)amino)-8,9-dihydroimidazo[1′,2′:1,6]pyrido[2,3-d]pyrimidin-6-yl)-4-methylphenyl)-4-(trifluoromethyl)picolinamide] gave a pIC50 of 5.00 to 7.00.

`Cc1ccc(NC(=O)c2cc(C(F)(F)F)ccn2)cc1C1=Cc2cnc(Nc3cnccc3O)nc2N2CCN=C12` [Compound 224, N-(3-(2-((4-hydroxypyridin-3-yl)amino)-8,9-dihydroimidazo[1′,2′:1,6]pyrido[2,3-d]pyrimidin-6-yl)-4-methylphenyl)-4-(trifluoromethyl)picolinamide]: the pIC50 was 5.00 to 7.00. As for `Cc1ccc(NC(=O)c2cc(C(F)(F)F)ccn2)cc1C1=Cc2cnc(Nc3ccccc3F)nc2N2CCN=C12` [Compound 225, N-(3-(2-((2-fluorophenyl)amino)-8,9-dihydroimidazo[1′,2′:1,6]pyrido[2,3-d]pyrimidin-6-yl)-4-methylphenyl)-4-(trifluoromethyl)picolinamide], the pIC50 was above 7.00. The molecule `Cc1ccc(NC(=O)c2cc(C(F)(F)F)ccn2)cc1C1=Cc2cnc(Nc3cccc(F)c3)nc2N2CCN=C12` [Compound 226, N-(3-(2-((3-fluorophenyl)amino)-8,9-dihydroimidazo[1′,2′:1,6]pyrido[2,3-d]pyrimidin-6-yl)-4-methylphenyl)-4-(trifluoromethyl)picolinamide] showed a pIC50 above 7.00. As to `Cc1ccc(NC(=O)c2cc(C(F)(F)F)ccn2)cc1C1=Cc2cnc(Nc3ccc(F)cc3)nc2N2CCN=C12` [Compound 227, N-(3-(2-((4-fluorophenyl)amino)-8,9-dihydroimidazo[1′,2′:1,6]pyrido[2,3-d]pyrimidin-6-yl)-4-methylphenyl)-4-(trifluoromethyl)picolinamide], the pIC50 was above 7.00. For the molecule `Cc1ccc(Nc2ncc3c(n2)N2CCN=C2C(c2cc(NC(=O)c4cc(C(F)(F)F)ccn4)ccc2C)=C3)cc1F` [Compound 228, N-(3-(2-((3-fluoro-4-methylphenyl)amino)-8,9-dihydroimidazo[1′,2′:1,6]pyrido[2,3-d]pyrimidin-6-yl)-4-methylphenyl)-4-(trifluoromethyl)picolinamide], the pIC50 is above 7.00.

`Cc1cnc(Nc2ncc3c(n2)N2CCN=C2C(c2cc(NC(=O)c4cc(C(F)(F)F)ccn4)ccc2C)=C3)s1` [Compound 232, N-(4-methyl-3-(2-((5-methylthiazol-2-yl)amino)-8,9-dihydroimidazo[1′,2′:1,6]pyrido[2,3-d]pyrimidin-6-yl)phenyl)-4-(trifluoromethyl)picolinamide] showed a pIC50 above 7.00. Consider `Cc1ccc(NC(=O)c2cc(C(F)(F)F)ccn2)cc1C1=Cc2cnc(Nc3ccnn3C)nc2N2CCN=C12` [Compound 235, N-(4-methyl-3-(2-((1-methyl-1H-pyrazol-5-yl)amino)-8,9-dihydroimidazo[1′,2′:1,6]pyrido[2,3-d]pyrimidin-6-yl)phenyl)-4-(trifluoromethyl)picolinamide], for which the negative logarithm of the IC50 (pIC50) is 5.00 to 7.00.

For `Cc1ccc(NC(=O)c2cc(C(F)(F)F)ccn2)cc1C1=Cc2cnc(Nc3cn(C)nn3)nc2N2CCN=C12` [Compound 237, N-(4-methyl-3-(2-((1-methyl-1H-1,2,3-triazol-4-yl)amino)-8,9-dihydroimidazo[1′,2′:1,6]pyrido[2,3-d]pyrimidin-6-yl)phenyl)-4-(trifluoromethyl)picolinamide], the pIC50 was above 7.00. Same read-out and setting: the figure for `Cc1ccc(NC(=O)c2cc(C(F)(F)F)ccn2)cc1C1=Cc2cnc(Nc3nnn[nH]3)nc2N2CCN=C12` [Compound 239, N-(3-(2-((1H-tetrazol-5-yl)amino)-8,9-dihydroimidazo[1′,2′:1,6]pyrido[2,3-d]pyrimidin-6-yl)-4-methylphenyl)-4-(trifluoromethyl)picolinamide] is 5.00 to 7.00; for `Cc1ccc(NC(=O)c2cc(C(F)(F)F)ccn2)cc1C1=Cc2cnc(Nc3ccn[nH]3)nc2N2CCN=C12` [Compound 240, N-(3-(2-((1H-pyrazol-5-yl)amino)-8,9-dihydroimidazo[1′,2′:1,6]pyrido[2,3-d]pyrimidin-6-yl)-4-methylphenyl)-4-(trifluoromethyl)picolinamide] it is above 7.00; for `Cc1ccc(Nc2ncc3c(n2)N2CCN=C2C(c2cc(NC(=O)c4cc(C(F)(F)F)ccn4)c(F)cc2C)=C3)cn1` [Compound 267, N-(2-fluoro-4-methyl-5-(2-((6-methylpyridin-3-yl)amino)-8,9-dihydroimidazo[1′,2′:1,6]pyrido[2,3-d]pyrimidin-6-yl)phenyl)-4-(trifluoromethyl)picolinamide] it is above 7.00. Same read-out and setting: under `Cc1cc(F)c(NC(=O)c2cc(C(F)(F)F)ccn2)cc1C1=Cc2cnc(Nc3ccn(C)n3)nc2N2CCN=C12` [Compound 269, N-(2-fluoro-4-methyl-5-(2-((1-methyl-1H-pyrazol-3-yl)amino)-8,9-dihydroimidazo[1′,2′:1,6]pyrido[2,3-d]pyrimidin-6-yl)phenyl)-4-(trifluoromethyl)picolinamide] stands above 7.00; under `CNc1ncc2c(n1)N1CCN=C1C(c1cc(C(=O)Nc3cc(C(F)(F)F)ccn3)c(F)cc1C)=C2` [Compound 277, 2-fluoro-4-methyl-5-(2-(methylamino)-8,9-dihydroimidazo[1′,2′:1,6]pyrido[2,3-d]pyrimidin-6-yl)-N-(4-(trifluoromethyl)pyridin-2-yl)benzamide], 5.00 to 7.00. In turn, `CNc1ncc2c(n1)N1CCN=C1C(c1ccc(F)c(C(=O)Nc3cc(C(F)(F)F)ccn3)c1)=C2` [Compound 278, 2-fluoro-5-(2-(methylamino)-8,9-dihydroimidazo[1′,2′:1,6]pyrido[2,3-d]pyrimidin-6-yl)-N-(4-(trifluoromethyl)pyridin-2-yl)benzamide] had a pIC50 below 5.00. Regarding `CNc1ncc2c(n1)N1CCN=C1C(c1cc(NS(=O)(=O)c3cccc(C(F)(F)F)c3)ccc1C)=C2` [Compound 283, N-(4-methyl-3-(2-(methylamino)-8,9-dihydroimidazo[1′,2′:1,6]pyrido[2,3-d]pyrimidin-6-yl)phenyl)-3-(trifluoromethyl)benzenesulfonamide], the pIC50 was below 5.00.

`CNc1ncc2c(n1)N1CCN=C1C(c1cc(NC(=O)C3(C(=O)Nc4ccc(F)cc4)CC3)ccc1Cl)=C2` [Compound 342, N-(4-chloro-3-(2-(methylamino)-8,9-dihydroimidazo[1′,2′:1,6]pyrido[2,3-d]pyrimidin-6-yl)phenyl)-N-(4-fluorophenyl)cyclopropane-1,1-dicarboxamide] gave a pIC50 of 5.00 to 7.00. Consider `CNc1ncc2c(n1)N1CCN=C1C(c1cc(NC(=O)C3(C(=O)Nc4ccc(F)cc4)CC3)c(F)cc1C)=C2` [Compound 343, N-(2-fluoro-4-methyl-5-(2-(methylamino)-8,9-dihydroimidazo[1′,2′:1,6]pyrido[2,3-d]pyrimidin-6-yl)phenyl)-N-(4-fluorophenyl)cyclopropane-1,1-dicarboxamide], for which the pIC50 was below 5.00. Molecule `Cc1cc(F)c(NC(=O)C2(C(=O)Nc3ccc(F)cc3)CC2)cc1C1=Cc2cnc(NC3COC3)nc2N2CCN=C12` [Compound 344, N-(2-fluoro-4-methyl-5-(2-(oxetan-3-ylamino)-8,9-dihydroimidazo[1′,2′:1,6]pyrido[2,3-d]pyrimidin-6-yl)phenyl)-N-(4-fluorophenyl)cyclopropane-1,1-dicarboxamide] showed a pIC50 below 5.00.
